Results published in patent US20100266591A1, “METHOD OF TREATING ERYTHROPOIETIN HYPORESPONSIVE ANEMIAS” (priority 2008, published 2010).
“Also recorded” adds a separate entry of the source.

What was measured:
normal rats = conditions: single subcutaneous dose, compared to rhEPO and darbepoetin; cited from earlier work
[1] = cited from earlier work
UT7 cells [2] = conditions: UT-7EPO cells; cited from earlier work
[3] = per mg of protein; cited from earlier work
W/Wv mice = experiment: Hgb response in c-kit deficient (W/Wv) mice; type: in vivo, mouse; conditions: single subcutaneous dose, 12,000 U/kg
Method: Materials and Methods. Male and female WBB6F1/J-KitW/KitW-v (black eyed, white coat, affected; Related genotype ala KitW/KitW-v) (W/Wv) mice were obtained from Jackson Laboratories, Bar Harbor, Me. at 5 to 7 weeks of age. These mice are deficient in c-kit the receptor for SCF. The mice were group housed in filter topped plastic shoe-box style cages. CNTO 530 (30 UT-7 Units/ug) and epoetin-α (120 UT-7 Units/ug) were tested and PBS pH 7.4 was used as the control article. Study Design: On Day 1 mice received a weight-adjusted, subcutaneous (s.c.) dose of epoetin-α, CNTO 530 or PBS (10 mL/kg) according to Table 4. Three mice/sex were bled per group at each designated time point according to Table 4. On Days 4, 9, 14, and 28 (males) or 30 (females), mice were anesthetized with CO2 and blood samples ([…]) taken via open chest cardiac puncture for hematology. Blood was collected directly into tubes prepared with EDTA and mixed thoroughly for approximately 10 seconds and placed on a rocker to prevent coagulation. Whole blood was be analyzed using an ADVIA 120 hematology analyzer.
Results. Data are expressed as the group mean and standard deviation or as group mean change from control. Mean values for the PBS control mice were used as the Day 1 baseline. For graphing, the nominal day may differ from the actual day of blood sampling by 1 day.

ala +/+ mice = experiment: Hgb response in normal ala +/+ littermates; type: in vivo, mouse; conditions: single subcutaneous dose, 12,000 U/kg
Tg197 mice = experiment: Hgb response in Tg197 mice (anemia of chronic disease); type: in vivo, mouse
Source text: The pharmacodynamics of epoetin-α in C57Bl/6 and Tg197 mice was first compared. Secondly, CNTO 530, epoetin-α and darbepoetin in Tg197 mice was compared.
Materials and Methods. Nine-week old heterozygous Tg197-CBA F1 transgenic mice, age-matched C57Bl/6 mice and age-matched CBA-057Bl/6 F1 hybrid (CBF1) mice were obtained from Ace Laboratories (Boyertown, Pa.), Ace Laboratories and Jackson Laboratories (Bar Harbor, Me.), respectively. Founder Tg197 mice for the transgenic colony was obtained from G. Kollias. The breeding stock was maintained as homozygotes and received weekly injections of murine anti-human TNFa antibodies (10 mg/kg intraperitoneally) to control their arthritis. For these experiments, homozygous Tg197 males were bred to CBA females. CBF1 mice were used because their disease progresses more slowly than that seen in homozygous Tg197 mice. The mice were group housed (4 per cage) in filter-topped plastic shoebox style cages. The animals were individually identified with ear tags, placed at least a week prior to the start of the study. […] All mice were maintained in the pathogen-free vivarium at Centocor R&D, Inc., Radnor Pa. The Institutional Animal Care and Use Committee at Centocor approved all associated procedures.
CNTO 530, recombinant human erythropoietin (epoetin-α, OrthoBiotech, Raritian N.J.), darbepoetin (Amgen, Thousand Oaks, Calif.), and PBS. Doses were expressed as mg/kg or UT-7 Units/kg (U/kg).
To comparative the pharmacodynamics of epoetin-α in C57Bl/6 and Tg197 mice, study animals were assigned to groups as shown in Table 1. On Day 0 the mice received a weight-adjusted, subcutaneous injection of test article (freshly diluted from stock) or PBS. Mice were euthanized by CO2 asphyxiation and blood was collected for each sample. […]
Hematology: Blood samples from mice in the model characterization and pharmacodynamic studies were collected at the times indicated in Tables 1 and 2. […] Data are expressed as group mean±standard deviation. Results: Data are expressed as the group mean and standard deviation or as group mean change from control. […]

UT7 cells [4] = experiment: UT7 cell proliferation assay; type: cell-based, human
Method: Particularly useful in identifying and calibrating compositions useful in the method of the invention is the UT7 cell proliferation assay. The UT7 is a human leukemic cell line that has been adapted to become EPO-dependant. In order to use the UT7 cell proliferation assay for selection of a composition or a dose to be administered to a subject having low blood hemoglobin content, the cells are washed free or normal culture medium and starved for EPO for 24 hours prior to assay. For example, the UT-7 cell starvation can proceed in IMDM media with added L-glutamine and FBS at 5% (I5Q). The cells are then prepared and suspended in the appropriate media to a final concentration of 6×10^5 cells/mL (yields a final concentration of 30,000 cells per 96-well chamber). An EPO standard is prepared by diluting EPO stock to 5 ng/mL followed by 1:2 serial dilutions down to a concentration of 0.0098 ng/mL in I5Q media. […] Cell proliferation is assessed using a vital stain such as Promega's MTS solution (Promega, Madison, Wis.) according to the manufacturer's instructions. The EC50 is calculated from a curve fit of concentration vs proliferation as measured by the increase in absorbance of the chromophore or other signal. […]
Using UT-7 cells, which display EPO-R and require an ESA for proliferation, competitive binding for the human EPO-R between CNTO 530 inhibited and ^125I-EPO was measured. […]

C57Bl/6 mice = experiment: Hgb response in C57Bl/6 mice (Example 1); type: in vivo, mouse
Source text: To comparative the pharmacodynamics of epoetin-α in C57Bl/6 and Tg197 mice, study animals were assigned to groups as shown in Table 1. On Day 0 the mice received a weight-adjusted, subcutaneous injection of test article (freshly diluted from stock) or PBS. Mice were euthanized by CO2 asphyxiation and blood was collected for each sample.
Hematology: Blood samples from mice in the model characterization and pharmacodynamic studies were collected at the times indicated in Tables 1 and 2. Blood was collected from mice anesthetized with a CO2 mixture via open chest cardiac puncture into commercially prepared EDTA coated microtubes. Blood analyses were performed on whole blood using the ADVIA 120 blood analyzer (Bayer Diagnostics, Tarrytown, N.Y.). Data are expressed as group mean±standard deviation. Results: Data are expressed as the group mean and standard deviation or as group mean change from control. Mean values for the PBS control mice were used as the Day 1 baseline. For graphing, the nominal day may differ from the actual day of blood sampling by 1 day. Mean (±standard deviation) hematological data for 30 CBF1 and 50 Tg197 PBS control mice (9 to 13 weeks old) are shown in Table 3.

[5] = molecular target: T1, human EPO-R displayed on UT-7 cells (human, UniProt P19235 25-508); experiment: competitive binding against 125I-EPO (0.5 nM) on UT-7 cells displaying human EPO-R
T1 construct: Endogenous receptor on UT-7 human leukemic cells; also called erythropoietin receptor; human EPO receptor
T1 sequence: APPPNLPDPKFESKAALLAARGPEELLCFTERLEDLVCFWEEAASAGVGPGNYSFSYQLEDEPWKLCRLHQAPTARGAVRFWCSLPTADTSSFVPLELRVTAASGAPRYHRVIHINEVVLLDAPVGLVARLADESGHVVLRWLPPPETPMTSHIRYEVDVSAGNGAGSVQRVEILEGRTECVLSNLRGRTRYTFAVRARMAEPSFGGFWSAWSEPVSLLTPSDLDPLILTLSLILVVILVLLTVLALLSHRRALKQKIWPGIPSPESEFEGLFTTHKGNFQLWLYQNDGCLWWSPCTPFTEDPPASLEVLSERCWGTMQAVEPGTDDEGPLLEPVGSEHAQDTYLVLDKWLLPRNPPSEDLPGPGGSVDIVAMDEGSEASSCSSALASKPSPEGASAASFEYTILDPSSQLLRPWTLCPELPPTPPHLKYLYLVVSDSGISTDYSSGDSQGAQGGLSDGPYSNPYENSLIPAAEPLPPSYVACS
Method: Using UT-7 cells, which display EPO-R and require an ESA for proliferation, competitive binding for the human EPO-R between CNTO 530 inhibited and ¹²⁵I-EPO was measured.

[6] = molecular target: T1, human EPO-R displayed on UT-7 cells; experiment: cell-based or functional assay
[7] = molecular target: T2, EPO-receptor (form in the assay not stated) (human, UniProt P19235 25-508, limits assumed); experiment: assay not stated
T2 sequence: T1 sequence

CNTO 528: EPO-mimetic peptide antibody fusion protein; disulfide-linked homodimer of SEQ ID NO: 2, two EMP1 copies and portions of human IgG
hematology response / efficacy (normal rats): longer-lived reticulocytosis and a longer-lived increase in hemoglobin; also recorded: only minor changes in red cell distribution width (RDW) or mean cell volume (MCV); also recorded: no effect on mean platelet volume (MPV); also recorded: efficacious in rat models of anemia and in a rat model of pure red cell aplasia | pharmacodynamic response ([1]; IV 0.03-0.9 mg/kg): prolonged, dose-dependent erythropoietic responses; also recorded: dose dependent increase in RBC count; also recorded: dose-dependent increase in soluble transferrin receptor concentration; also recorded: dose-dependent increase in endogenous EPO concentration | tolerability ([1]; IV 0.03-0.9 mg/kg): well tolerated | pharmacokinetics ([1]; IV): linear and approximately dose proportional | mean Hgb concentration above baseline at last measurement ([1]; approximately 2.5 months after a single dose): 0.4 g/dL | immunogenicity ([1]; human, in vivo): No immunogenicity was observed | time of maximum effect on Hgb concentration ([1]; single IV dose): 22 days | fold less potent than rhEPO on a molar basis, growth stimulation (UT7 cells [2]): approximately 10 fold

Human urinary EPO: isolated human urinary EPO, international reference standard for EPO assays
specific activity [3]: about 70,000 U/mg

epoetin-α: recombinant human erythropoietin (OrthoBiotech), 166 amino acid sequence SEQ ID NO: 1
increase in hemoglobin (W/Wv mice): less than 1 g/dL | increase in Hgb (ala +/+ mice): approximately 2 g/dL | specific activity [3]: 100,000 to 200,000 U/mg | Hgb response (increase) (Tg197 mice; 0.3 mg/kg s.c., single dose): ~1 g/dL | day Hgb returned to baseline (Tg197 mice; 0.3 mg/kg s.c., single dose): ≤ 8 days | Hgb response (Tg197 mice; single s.c. dose, comparison at 30,000 U/kg): little dose response between 0.03 and 0.3 mg/kg | in vitro activity (UT7 cells [4]): 120 UT-7 Units/ug | EC50 (UT7 cells [4]; 48 hours, MTS): ~0.018 nM | day Hgb returned to baseline (C57Bl/6 mice; 0.3 mg/kg s.c., single dose): 15 days | increase in Hgb (C57Bl/6 mice; 0.3 mg/kg s.c., single dose): ~1.5 g/dL | Hgb response (C57Bl/6 mice; 0.03 and 0.3 mg/kg s.c.): dose-dependent increase in hemoglobin

B1: CNTO 530 (Fc fusion)
chain: QIQGGTYSCHFGPLTWVCKPQGGGSCPPCPAPEAAGGPSVFLFPPKPKDTLMISRTPEVTCVVVDVSQEDPEVQFNWYVDGVEVHNAKTKPREEQFNSTYRVVSVLTVLHQDWLNGKEYKCKVSNKGLPSSIEKTISKAKGQPREPQVYTLPPSQEEMTKNQVSLTCLVKGFYPSDIAVEWESNGQPENNYKTTPPVLDSDGSFFLYSRLTVDKSRWQEGNVFSCSVMHEALHNHYTQKSLSLSLGK
notes: EPO-mimetic peptide antibody fusion protein; Homodimer joined by disulfide bonds through cysteines in the immunoglobulin-derived portion; May or may not be glycosylated; also called Dimeric EMP1 construct: CNTO 530
IC50 [5]: ~60 nM | induction of UT-7 cell proliferation (EC50) [6]: ~55 pM | potency against rHuEPO in a simple proliferation assay using UT-7 cells [6]: ~24 fold less potent than rHuEPO (molar) | rescue of EPO-deprived UT-7 cells from apoptosis (EC50) [6]: ~21 pM | Kd [7]: ~10 nM
